The values that follow come from patent US20240423923A1, “EXTRACELLULAR VESICLES FROM MICROALGAE, THEIR BIODISTRIBUTION UPON ADMINISTRATION, AND USES” (AGS THERAPEUTICS SAS, priority 2022, published 2024).

For assay [1] the following is noted: medial prefrontal cortex, anterior cingulate cortex, central nucleus of amygdala; cited from earlier work.
The target of assay [2] is Flagellin Sensing 2 receptor (FLS2) (Arabidopsis thaliana) (UniProt Q9FL28). The experiment in a line: cell-based or functional assay.
Chain of UniProt Q9FL28 (Q9FL28 24-1173): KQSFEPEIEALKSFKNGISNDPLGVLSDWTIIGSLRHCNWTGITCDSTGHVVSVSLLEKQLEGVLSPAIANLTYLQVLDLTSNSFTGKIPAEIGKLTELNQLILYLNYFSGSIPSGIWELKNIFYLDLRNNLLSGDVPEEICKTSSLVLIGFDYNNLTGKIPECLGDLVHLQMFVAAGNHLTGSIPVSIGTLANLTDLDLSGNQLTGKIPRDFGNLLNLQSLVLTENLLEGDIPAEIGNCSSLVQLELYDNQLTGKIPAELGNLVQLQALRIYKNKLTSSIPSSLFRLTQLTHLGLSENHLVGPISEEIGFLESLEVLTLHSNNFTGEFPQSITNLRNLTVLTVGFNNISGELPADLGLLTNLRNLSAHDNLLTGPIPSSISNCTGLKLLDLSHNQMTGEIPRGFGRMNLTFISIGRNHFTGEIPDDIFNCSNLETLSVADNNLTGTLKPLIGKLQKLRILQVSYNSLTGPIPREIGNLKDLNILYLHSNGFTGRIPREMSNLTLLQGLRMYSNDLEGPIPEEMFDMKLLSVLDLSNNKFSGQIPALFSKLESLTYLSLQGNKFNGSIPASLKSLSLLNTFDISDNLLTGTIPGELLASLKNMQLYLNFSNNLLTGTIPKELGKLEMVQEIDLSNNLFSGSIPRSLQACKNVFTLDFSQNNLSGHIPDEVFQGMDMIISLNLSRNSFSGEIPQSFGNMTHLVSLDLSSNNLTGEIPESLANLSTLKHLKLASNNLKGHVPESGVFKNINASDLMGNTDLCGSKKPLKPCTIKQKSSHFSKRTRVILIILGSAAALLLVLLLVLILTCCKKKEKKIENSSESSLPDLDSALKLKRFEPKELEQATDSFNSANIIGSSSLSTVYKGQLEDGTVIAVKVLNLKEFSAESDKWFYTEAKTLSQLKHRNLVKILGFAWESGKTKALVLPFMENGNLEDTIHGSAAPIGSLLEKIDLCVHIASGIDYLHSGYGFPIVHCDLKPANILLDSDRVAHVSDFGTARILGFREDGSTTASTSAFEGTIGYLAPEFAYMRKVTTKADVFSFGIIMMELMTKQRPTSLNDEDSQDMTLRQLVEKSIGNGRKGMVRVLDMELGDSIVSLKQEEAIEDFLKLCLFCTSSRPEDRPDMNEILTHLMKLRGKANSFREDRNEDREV

Chain of flg22 peptide (22 amino acid synthetic peptide that mimics the conserved N-terminal region of bacterial flagellin) (P21184 30-51): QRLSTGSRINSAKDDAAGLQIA

As for `CCN(CC)C(=O)[C@@H]1C=C2c3cccc4[nH]cc(c34)C[C@H]2N(C)C1` [LSD, Lysergic acid diethylamide], the “increase in Fos-like immunoreactivity” value in assay [1] is on record as “a five- to eight-fold increase”.

“flg22 peptide (22 amino acid synthetic peptide that mimics the conserved N-terminal region of bacterial flagellin)” displayed a stomatal closure assay; effect of flg22-loaded EVs compared with free flg22 peptide in assay [2] greater than 10 nM.
